In the assay the test system is neurospheres which are clusters of neural stem cells. Put plainly: Test Example 1: differentiation of neurospheres into neurons (immunofluorescence, confocal microscope). It is filed as cell-based. To be noted: Mus musculus, Neural stem cell; test compound 10^−6M, cultivation typically 24 hours, Anti-MAP2 labeling of neurons, control = 100; read-out: Percentage of neuron in relation to control. How it is done: Neural stem cell was produced from […] in accordance with the method of Weiss and Reynolds (1996). More specifically, striate body was extirpated from mouse embryo, and the cells were dispersed in a culture medium containing EGF (20 ng/mL). The cells were cultured under the conditions of 5% CO2 and 37° C. for 5 days. The culture was then centrifuged at 400 rpm in Dissociation Medium (manufactured by Sigma) for 5 minutes, and neurospheres which are cluster of the neural stem cells were obtained. The neurospheres were dispersed in the culture medium, and cultivation was conducted under the same conditions to produce secondary neurospheres.
A sterilized cover glass was placed in the well of 24 well plate, treated overnight with polyornithine solution (30 μg/mL), and washed three times with phosphate buffered saline. Neurospheres were inoculated on the cover glass at 20 to 50 cells/cover glass. The test compound that has been adjusted to the concentration of 10^−6M with ethanol was applied to the cover glass, and the cultivation was continued for a period sufficient for differentiation of the neurospheres (typically 24 hours). The indole derivatives obtained in the Examples were used for the test compounds, and the control cells were cultivated without using such test compound.
Sufficiently differentiated neurospheres were fixed with 4% p-formaldehyde, washed with phosphate buffered saline, and after adding Triton-X100, washed again with phosphate buffered saline. Anti-MAP2 (2a+2b) (Sigma) which is a mouse monoclonal antibody used for labeling neurons and Anti-O4 (Boeringher) which is a mouse monoclonal antibody used for labeling oligodendrocytes, and Anti-GFAP (DAKO) which is a rabbit monoclonal antibody used for labeling astrocytes were added, and the cultivation was continued at room temperature for 1 hour or overnight at 4° C. Anti-mouse IgM antibody and fluorescence indicator were added, and cultivation was continued at room temperature for 1 hour. After washing with phosphate buffered saline, the cover glass was placed on a confocal microscope to observe the differentiation of the neurospheres.
On to `COc1ccc2[nH]cc(CCCCCCCCCCCCCCO)c2c1` [1-1a, n=14, 14-(5-methoxy-1H-indole-3-yl)-tetradecane-1-ol], for which the activity at 1 µM came out at 143%. On to `COc1ccc2[nH]cc(CCCCCCCCCCCCCCCCO)c2c1` [1-1a, n=16, 16-(5-methoxy-1H-indole-3-yl)-hexadecane-1-ol], for which the activity at 1 µM was 168%. Under `COc1ccc2[nH]cc(CCCCCCCCCCCCCCCCCCO)c2c1` [1-1a, n=18, 18-(5-methoxy-1H-indole-3-yl)-octadecane-1-ol] stands 169%.

Take `COc1cccc2[nH]cc(CCCCCCCCCCCCCCCCO)c12` [1-1b, n=16, 16-(4-methoxy-1H-indole-3-yl)-hexadecane-1-ol]: the activity at 1 µM came out at 133%. For the compound `COc1ccc2c(CCCCCCCCCCCCCCCCO)c[nH]c2c1` [1-1c, n=16, 16-(6-methoxy-1H-indole-3-yl)-hexadecane-1-ol], the activity at 1 µM was determined as 135%. For the compound `COc1ccc2[nH]c(CCCCCCCCCCCCCCCCO)cc2c1` [1-2a, n=16, 16-(5-methoxy-1H-indole-2-yl)-hexadecane-1-ol], the activity at 1 µM was 135%.

With `COc1cccc2[nH]c(CCCCCCCCCCCCCCO)cc12` [1-2b, n=14, 14-(4-methoxy-1H-indole-2-yl)-tetradecane-1-ol], the activity at 1 µM is 147%.

As for `COc1cccc2[nH]c(CCCCCCCCCCCCCCCCO)cc12` [1-2b, n=16, 16-(4-methoxy-1H-indole-2-yl)-hexadecane-1-ol], the activity at 1 µM was 184%.

Regarding `COc1cccc2cc(CCCCCCCCCCCCCCCCO)[nH]c12` [1-2c, n=16, 16-(7-methoxy-1H-indole-2-yl)-hexadecane-1-ol], the activity at 1 µM was 128%.

The record behind these values is patent publication US7307098B2, “Indole derivatives and drugs containing the same” (Meiji Dairies Corporation, priority 2002, dated 2007).
